Experimental data published in article PMC8583417, “Evaluation of the Antimicrobial Efficacy of N-Acetyl-L-Cysteine, Rhamnolipids, and Usnic Acid—Novel Approaches to Fight Food-Borne Pathogens” (International Journal of Molecular Sciences, 2021).
≈ marks a conversion by molar mass, not a printed value.

Key:
[1] = test system: S. Enteritidis ATCC 13076; assay: MIC for biofilm metabolic activity (MTT reduction assay); type: cell-based, Salmonella enterica Enteritidis; settings: for MICBM80: ≥80% inhibition, 24 h
Protocol: (§1) Ten concentrations of NAC, RLs, and UA were tested to determine the minimum inhibitory concentration for planktonic growth, and subsequently, the six highest concentrations were applied on preformed biofilms to evaluate the biofilm eradication ability of the compounds. MIC was defined as the lowest substance concentration able to inhibit at least 80% of microbial growth (MICPC80 for planktonic cells, MICBC80 for further growth of biofilm cells), inhibit 80% of metabolic activity (MICBM80 for biofilm metabolic activity, MICMPB80 for metabolic activity of preformed biofilm), prevent biofilm formation by at least 80% (MICBF80 for biofilm formation), or reduce a preformed biofilm by at least 80% (MICBR80 for biofilm reduction). The results of MICs are summarized in Table 1 (planktonic cells) and Table 2 (biofilm-associated cells).
(§2) The determination of MICs was performed according to Chlumsky et al.. […] To evaluate planktonic cells growth (MICPC80) and further growth of biofilm cells (MICBC80), the optical density of the content of the microtiter plates was measured spectrophotometrically at 625 nm before and after 24 h (for biofilm formation) of cultivation or before and after additional 20 h incubation with the tested compound (for preformed biofilm). […] To evaluate the inhibition of biofilm formation (MICBF80) and reduction in preformed biofilms (MICBR80), biomass was quantified using crystal violet staining, and its metabolic activity (MICBM80 and MICMPB80) was estimated by using the MTT (thiazyl tetrazolium bromide, Sigma-Aldrich, USA) reduction assay, both measured spectrophotometrically at 595 nm.
(§3) All inhibitions were calculated using the formula of Chlumsky et al. below (Equation (1)):(1) A625(595)nm inhibition (%)=A625(595)nm (control) – A625(595)nm(natural substance)/A625(595)nm (control)× 100 where A625(595)nm (control) is the absorbance of bacterial suspension/biofilm itself, and A625(595)nm(natural substance) is the absorbance of the bacterial suspension/biofilm with the added natural substance (NAC, RLs, and UA). […]

[2] = test system: cell lines HRTEC, HaCat, HDF, HEK 293, HCAEC; assay: Acute cytotoxicity, resazurin assay, summary over cell lines; type: cell-based, human; settings: 72 h
Excerpt: To test the acute cytotoxicity of the compounds, the following cell lines were used: primary human renal tubular epithelial cells (HRTEC; Evercyte, Vienna, Austria); human keratinocytes (HaCat; Thermo Fisher Scientific, Waltham, MA, USA); human dermal fibroblasts (HDF; Merck, Kenilworth, NJ, USA); human epithelial kidney cells (HEK 293; ATCC, Manassas, VI, USA); primary human coronary artery endothelial cells (HCAEC; ATCC, Manassas, VI, USA). The cell lines were maintained in a proper cultivation medium—HaCat, HDF, and Hek 293 in DMEM; HRTEC in VCB; HCAEC in ProxUp. The cytotoxicity experiment was realized according to Tran et al.. Briefly, the cells were counted by the Cellometer Auto T4 (Nexcelom Bioscience, Lawrence, MA, USA), and the cell suspension containing a cell density of 10^5 cells/mL was split into the 96-well plate, with 100 µL per well. The plates were then incubated for 24 h at 37 °C in a humidified atmosphere of 5% CO2. Then, the plates were washed three times with PBS, and the tested natural compounds were added using binary dilution in a proper medium. After 72 h of incubation, the cell viability was tested by resazurin assay. The fluorescence was measured by a SpectraMax i3× microplate reader (San Jose, CA, USA) at a wavelength of 560 nm excitation/590 nm emission.
The cytotoxicity results are expressed as the average IC50 ± standard error of the mean (SEM). […]

S. aureus 816 = assay: MIC for reduction of preformed biofilm (crystal violet staining); type: cell-based, Staphylococcus aureus; settings: for MICBR80: ≥80% reduction of preformed biofilm (18 h), 20 h with substance
Protocol: as §1
(§4) The determination of MICs was performed according to Chlumsky et al.. Briefly, 96-well flat-bottomed microtiter plates were inoculated with 75 µL (for biofilm formation) or 100 µL (for preformed biofilm) of bacterial suspension (A625nm 0.08 to 0.1) in technical triplicates and were then carefully mixed with the dilution series of the test substances (24 h cultivation at 25 °C for S. Infantis, 37 °C for other strains) or were directly cultivated to preform biofilms (18 h). For a positive control of bacterial growth, the inoculum was mixed with a pure sterile medium. Furthermore, the sterile medium was included in the plate as a marker of potential microbial contamination. To evaluate planktonic cells growth (MICPC80) and further growth of biofilm cells (MICBC80), the optical density of the content of the microtiter plates was measured spectrophotometrically at 625 nm before and after 24 h (for biofilm formation) of cultivation or before and after additional 20 h incubation with the tested compound (for preformed biofilm). The difference of A625nm was considered as a measure of the ability of cells to grow in the presence of the tested substances. To evaluate the inhibition of biofilm formation (MICBF80) and reduction in preformed biofilms (MICBR80), biomass was quantified using crystal violet staining, and its metabolic activity (MICBM80 and MICMPB80) was estimated by using the MTT (thiazyl tetrazolium bromide, Sigma-Aldrich, USA) reduction assay, both measured spectrophotometrically at 595 nm.
(§5) All inhibitions were calculated using the formula of Chlumsky et al. below (Equation (1)):(1) A625(595)nm inhibition (%)=A625(595)nm (control) – A625(595)nm(natural substance)/A625(595)nm (control)× 100 where A625(595)nm (control) is the absorbance of bacterial suspension/biofilm itself, and A625(595)nm(natural substance) is the absorbance of the bacterial suspension/biofilm with the added natural substance (NAC, RLs, and UA).
(§6) When the minimum inhibitory concentration could not be determined, the MIC was established as >the highest tested concentration for NAC, RLs, and UA.

S. aureus 1241 = assay: as above; type: cell-based, Staphylococcus aureus; settings: for maximal achieved inhibition (MICBR80 not reached), biofilm reduction: preformed biofilm, within tested concentrations; for MICBR80: ≥80% reduction of preformed biofilm (18 h), 20 h with substance
Protocol: as §1, §4, §5, §6

[3] = test system: S. Enteritidis ATCC 13076; assay: as above; type: cell-based, Salmonella enterica Enteritidis; settings: for MICBR80: ≥80% reduction of preformed biofilm (18 h), 20 h with substance
Protocol: as §1, §2, §3

[4] = test system: S. Enteritidis ATCC 13076; assay: MIC for planktonic cell growth (A625nm); type: cell-based, Salmonella enterica Enteritidis; settings: for MICPC80: ≥80% inhibition, 24 h
Protocol: as §1, §2, §3

[5] = preformed biofilm, within tested concentrations

Row | SMILES | MICBM80 [1] | IC50 ([2]; Homo sapiens, read-out: IC50, range over cell lines) [mg/L] | MICBR80 (S. aureus 816) | maximal achieved inhibition (MICBR80 not reached), biofilm reduction (S. aureus 1241) [%] | MICBR80 (S. aureus 1241) | MICBR80 [3] | MICPC80 [4] | maximal achieved inhibition (MICBM80 not reached) ([1]; within tested concentrations) [%] | IC50, range over cell lines [2] [mg/L] | maximal achieved inhibition (MICBR80 not reached), biofilm reduction (S. aureus 816; [5]) [%] | maximal achieved inhibition (MICBR80 not reached), biofilm reduction [3, 5] [%] | maximal achieved inhibition (MICPC80 not reached) ([4]; within tested concentrations) [%]
1 | CC(=O)N[C@@H](CS)C(=O)O [NAC, N-Acetyl-L-cysteine] | 12,500 µg/mL | 460 to 4020 (≈ 2820 to 24600 µM) | 12,500 µg/mL | 31 | > 100,000 µg/mL | 12,500 µg/mL | 12,500 µg/mL | – | – | – | – | –
2 | CC(=O)c1c(O)c(C)c(O)c2c1OC1=CC(=O)C(C(C)=O)C(=O)C12C (single isomer, unassigned; (+)) [UA, (+)-usnic acid] | > 31.3 µg/mL | – | > 31.3 µg/mL | 72 | > 31.3 µg/mL | > 31.3 µg/mL | > 31.3 µg/mL | 45 | 0.03 to 4.35 | 35 | 0 | 42
